The subject of one series is MT-4 cells. Description: MT4 cytotoxicity analysis (CellTiter-Glo). Format: cell-based. The essentials:
(§1)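 MT-4 cells were exposed in quadruplicate to 3-fold serial compound dilutions (DMSO stocks 2.5 uM to 10 mM) for five days at 37 °C. Viability was read by CellTiter-Glo luminescence.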

Series [1] has as its system RSV-Fluc (Recombinant Respiratory Syncytial virus strain A2 containing the firefly luciferase reporter). Briefly: microbe, parasite or virus in culture. The class given is cell-based. The conditions noted are these: read-out: RSV-Fluc EC50 (nM, NHBE).
Another series relates to SARS-CoV-2. Briefly: microbe, parasite or virus in culture. Format: cell-based.
The nature of series [2]: MT4 cytotoxicity analysis (CellTiter-Glo). The following applies: human, MT4 CC50 (nM). The class given is cell-based. A digest of the protocol: as §1
In general terms: Cellular ATP, detected with luciferase, serves as a proxy for viable cell number.

Details of series [3]: species or system Sprague-Dawley (SD) rats. The following applies: male, Sprague-Dawley, rat, in vivo, po, 10 mg/kg. As to the method: Example 80: Rat Lung Phosphate (Monophosphate, Diphosphate and Triphosphate) Data with Exemplary Compounds
Measurement of GS-441524 (compound A below) and its phosphorylated metabolites (compounds B, C, and D below) in lung tissues was performed according to the following protocol.
The concentrations of GS-441524 (A) and its phosphorylated metabolites (B, C, and D) were determined in Sprague-Dawley (SD) rats following oral gavage administration of the test compounds. The in-life phase of studies was conducted at Covance Laboratories (Madison, WI). Animals were housed and handled in accordance with the Guide for the Care and Use of Laboratory Animals, Institute of Laboratory Animal Resources. The protocols were reviewed and approved by the Institutional Animal Care and Use Committees (IACUC). Male SD rats weighing approximately 0.3 kg were used for in-life portion of the studies. The animals were fasted overnight prior to the test compound administration and up to 4 hours post-dose. The animals were administered with the test compound at 5, 8, 10 or 20 mg/kg via oral gavage (3 rats per group). The aqueous formulation contains ethanol, dimethyl sulfoxide, Kolliphor HS-15, Labrasol, and propylene glycol. Approximately 0.5 grams of lung tissue samples were collected from each animal and analyzed by LC/MS/MS for determination of the concentrations of GS-441524 and its phosphorylated metabolites. For LC-MS/MS analysis, tissue samples were homogenized and extracted with 4-fold volume of 70% methanol containing 0.1% potassium hydroxide, 67 mM ethylenediamine tetraacetic acid, and internal standard. Approximately 200 μL aliquot of the homogenate was filtered using a 96-well filter plate (0.2 μm polypropylene; Agilent Captiva, Santa Clara, CA). The filtrate was evaporated to dryness and reconstituted with equal volume of 1 mM ammonium phosphate buffer (pH 7). The samples were then analyzed on a Sciex 6500+ LC-MS/MS instrument (Redwood City, CA). Analytes were eluted on a […] 50×2.0 mm Phenomenex Luna C18 HST column (Torrance, CA) using mobile phases containing 3 mM ammonium formate and 10 mM dimethylhexylamine and a linear gradient from 9% to 50% acetonitrile at a flow rate of 360 μL/min. Data acquisition and processing were accomplished using Sciex Analyst® Software. Total summed levels of GS-441524 phosphorylate metabolites (B+C+D) in lung tissues were generated from the sum of GS-441524 mono-, di- and tri-phosphate (B, C, and D respectively).

Setting [4] is: human respiratory syncytial virus, NHBE, 72 h.
Setting [5] is: Severe acute respiratory syndrome coronavirus 2, 48 h.
[6] abbreviates: MT-4 cells, five days, CellTiter-Glo, read-out: MT4 CC50.

The values that follow come from patent US12208110B2 (priority 2020, dated 2025).

Molecules are shown by their SMILES. Like-named read-outs stand apart in the source and are kept apart here.

What is called CC50 is the concentration that lowers cell viability or growth by half. The term EC50 denotes the midpoint of the concentration-response curve.

On to `CCCCCCCCCCCCCCCCCCOC[C@@H](OCc1ccccc1)C(C)OP(=O)(O)OC[C@H]1O[C@@](C#N)(c2ccc3c(N)ncnn23)[C@H](O)[C@@H]1O` (single isomer, unassigned) [Example 12], for which, in the series with MT-4 cells (human, 5 days), the CC50 worked out at 10 µM. The EC50 in series [1] (setting [4]) amounted to 240 nM; in the series on SARS-CoV-2 (setting [5]), 8.4 µM.
In the series with MT-4 cells (human, 5 days), `CCCCCCCCCCCCCCCCCCOC[C@@H](OCc1ccccc1)C(C)OP(=O)(O)OC[C@H]1O[C@@](C#N)(c2ccc3c(N)ncnn23)[C@H](O)[C@@H]1O` (single isomer, unassigned) [Example 13] registered a CC50 of 29 µM. Further, the EC50 was determined as 240 nM in series [1] (NHBE cells, RSV-Fluc MOI 0.1, three days, luciferase readout) and 9.5 µM in the series with SARS-CoV-2.
In the series on MT-4 cells (human, 5 days), `CCCCCCCCCCCCCCCCCCOC[C@H](COP(=O)(O)OC[C@H]1O[C@@](C#N)(c2ccc3c(N)ncnn23)[C@H](O)[C@@H]1O)N(C)Cc1cc(F)cc(C#N)c1` [Example 6, ((2R,3S,4R,5R)-5-(4-aminopyrrolo[2,1-f][1,2,4]triazin-7-yl)-5-cyano-3,4-dihydroxytetrahydrofuran-2-yl)methyl ((R)-2-((3-cyano-5-fluorobenzyl)(methyl)amino)-3-(octadecyloxy)propyl) hydrogen phosphate] had a half-maximal cytotoxic concentration (CC50) of 50 µM. The EC50 in series [1] (setting [4]) is 570 nM; in the series on SARS-CoV-2 (setting [5]) it was 10 µM.
Regarding `CCCCCCCCCCCCCCCCCCOC[C@H](COP(=O)(O)OC[C@H]1O[C@@](C#N)(c2ccc3c(N)ncnn23)[C@H](O)[C@@H]1O)OC(=O)c1ccccc1` [Example 17, (2R)-1-(((((2R,3S,4R,5R)-5-(4-aminopyrrolo[2,1-f][1,2,4]triazin-7-yl)-5-cyano-3,4-dihydroxytetrahydrofuran-2-yl)methoxy)(hydroxy)phosphoryl)oxy)-3-(octadecyloxy)propan-2-yl benzoate], it took 50 µM to reach half-maximal cytotoxicity in the series with MT-4 cells (human, 5 days) (CC50). The half-maximal effective concentration (EC50) in series [1] (setting [4]) amounted to 120 nM; with SARS-CoV-2 (setting [5]), 0.89 µM.
Take `CCCCCCCCCOCCCOP(=O)(O)OC[C@H]1O[C@@](C#N)(c2ccc3c(N)ncnn23)[C@H](O)[C@@H]1O` [Example 25, ((2R,3S,4R,5R)-5-(4-Aminopyrrolo[2,1-f][1,2,4]triazin-7-yl)-5-cyano-3,4-dihydroxytetrahydrofuran-2-yl)methyl (3-(nonyloxy)propyl) hydrogen phosphate]: in the series with MT-4 cells (setting [6]), the CC50 stood at 50 µM. In addition, the EC50 in series [1] (setting [4]) was 5000 nM; with SARS-CoV-2 (setting [5]) it was 10 µM.
The like results for `CCCCCCCCOCCOP(=O)(O)OC[C@H]1O[C@@](C#N)(c2ccc3c(N)ncnn23)[C@H](O)[C@@H]1O` [Example 26, ((2R,3S,4R,5R)-5-(4-Aminopyrrolo[2,1-f][1,2,4]triazin-7-yl)-5-cyano-3,4-dihydroxytetrahydrofuran-2-yl)methyl (2-(octyloxy)ethyl) hydrogen phosphate] were, in that order, 50 µM, 5000 nM and 10 µM.
Consider `CCCCCCCCCCCOCCOP(=O)(O)OC[C@H]1O[C@@](C#N)(c2ccc3c(N)ncnn23)[C@H](O)[C@@H]1O` [Example 27, ((2R,3S,4R,5R)-5-(4-Aminopyrrolo[2,1-f][1,2,4]triazin-7-yl)-5-cyano-3,4-dihydroxytetrahydrofuran-2-yl)methyl (2-(undecyloxy)ethyl) hydrogen phosphate], for which, in the series on MT-4 cells (setting [6]), the CC50 was 50 µM. Further, the EC50 in series [1] (setting [4]) turned out to be 5000 nM; in the series on SARS-CoV-2 (setting [5]), 10 µM.
In the series with MT-4 cells (human, 5 days), `CCCCCCCCCCCCCCCCCCOC[C@H](COP(=O)(O)OC[C@H]1O[C@@](C#N)(c2ccc3c(N)ncnn23)[C@H](O)[C@@H]1O)NC(=O)c1ccccc1` [Example 30, ((2R,3S,4R,5R)-5-(4-aminopyrrolo[2,1-f][1,2,4]triazin-7-yl)-5-cyano-3,4-dihydroxytetrahydrofuran-2-yl)methyl ((R)-2-benzamido-3-(octadecyloxy)propyl) hydrogen phosphate] returned a CC50 of 50 µM. The values for the EC50 (in series [1] (setting [4]); in the series on SARS-CoV-2 (setting [5])) were 130 nM and 8.3 µM, respectively.
Regarding `CCCCCCCCCCCCCCCCCCOC[C@H](COP(=O)(O)OC[C@H]1O[C@@](C#N)(c2ccc3c(N)ncnn23)[C@H](O)[C@@H]1O)Oc1ccccc1C(=O)O` [Example 38, 2-(((2R)-1-(((((2R,3S,4R,5R)-5-(4-aminopyrrolo[2,1-f][1,2,4]triazin-7-yl)-5-cyano-3,4-dihydroxytetrahydrofuran-2-yl)methoxy)(hydroxy)phosphoryl)oxy)-3-(octadecyloxy)propan-2-yl)oxy)benzoic acid], the 50% cytotoxic concentration (CC50) in the series on MT-4 cells (human, 5 days) was found to be 50 µM. The EC50 in series [1] (setting [4]) amounted to 160 nM.
In series [2], `CCCCCCCCCCCCCCCCCCOC[C@H](COP(=O)(O)OC[C@H]1O[C@@](C#N)(c2ccc3c(N)ncnn23)[C@H](O)[C@@H]1O)OCc1cc(OC)c(C#N)c(OC)c1` [Example 55, ((2R,3S,4R,5R)-5-(4-aminopyrrolo[2,1-f][1,2,4]triazin-7-yl)-5-cyano-3,4-dihydroxytetrahydrofuran-2-yl)methyl ((R)-2-((4-cyano-3,5-dimethoxybenzyl)oxy)-3-(octadecyloxy)propyl) hydrogen phosphate] displayed a CC50 at 5 days of 270 nM. Moreover, in series [1] (setting [4]), the EC50 was 24 nM. In series [3], the “Total Lung Phosphate Level (monophosphate + diphosphate + triphosphate, nmol/g)” value was 2.1 nmol/g.
In the series on MT-4 cells (human, 5 days), `CCCCCCCCCCCCCCCCCCOC[C@H](COP(=O)(O)OC[C@H]1O[C@@](C#N)(c2ccc3c(N)ncnn23)[C@H](O)[C@@H]1O)NC(=O)c1cccc(C#N)c1` [Example 57, ((2R,3S,4R,5R)-5-(4-aminopyrrolo[2,1-f][1,2,4]triazin-7-yl)-5-cyano-3,4-dihydroxytetrahydrofuran-2-yl)methyl ((R)-2-(3-cyanobenzamido)-3-(octadecyloxy)propyl) hydrogen phosphate] returned a CC50 of 50 µM. For the same compound, the EC50 in series [1] (setting [4]) turned out to be 330 nM; in the series on SARS-CoV-2 (setting [5]), 4.9 µM.
`CCCCCCCCCCCCSCCCOP(=O)(O)OC[C@H]1O[C@@](C#N)(c2ccc3c(N)ncnn23)[C@H](O)[C@@H]1O` [Example 63, [(2R,3S,4R,5R)-5-(4-Aminopyrrolo[2,1-f][1,2,4]triazin-7-yl)-5-cyano-3,4-dihydroxy-tetrahydrofuran-2-yl]methyl 3-dodecylsulfanylpropyl hydrogen phosphate] displayed a CC50 with MT-4 cells (human, 5 days) of 50 µM. Further, the figures for the 50% effective concentration (EC50) (in series [1] (setting [4]); in the series on SARS-CoV-2 (setting [5])) were 470 nM and 10 µM, respectively.
As to `CCCCCCCCCCCCCCCCSCCCOP(=O)(O)OC[C@H]1O[C@@](C#N)(c2ccc3c(N)ncnn23)[C@H](O)[C@@H]1O` [Example 65, [(2R,3S,4R,5R)-5-(4-Aminopyrrolo[2,1-f][1,2,4]triazin-7-yl)-5-cyano-3,4-dihydroxy-tetrahydrofuran-2-yl]methyl 3-hexadecylsulfanylpropyl hydrogen phosphate], the CC50 with MT-4 cells (human, 5 days) amounted to 50 µM.
On to `CCCCCCCCCCCCCCCCCCOC[C@H](CO[P@@](=O)(S)OC[C@H]1O[C@@](C#N)(c2ccc3c(N)ncnn23)[C@H](O)[C@@H]1O)OCc1ccccc1` [Example 67, O-(((2R,3S,4R,5R)-5-(4-aminopyrrolo[2,1-f][1,2,4]triazin-7-yl)-5-cyano-3,4-dihydroxytetrahydrofuran-2-yl)methyl) O—((R)-2-(benzyloxy)-3-(octadecyloxy)propyl) O-hydrogen (R)-phosphorothioate], for which the CC50 with MT-4 cells (human, 5 days) is 26 µM. For the same compound, the concentration for a half-maximal effect (EC50) is 190 nM in series [1] (setting [4]) and 0.12 µM in the series with SARS-CoV-2 (setting [5]).
`CCCCCCCCCCCCCCC#CC[C@H](COP(=O)(O)OC[C@H]1O[C@@](C#N)(c2ccc3c(N)ncnn23)[C@H](O)[C@@H]1O)OCc1ccc(C#N)c(F)c1` [Example 75, ((2R,3S,4R,5R)-5-(4-aminopyrrolo[2,1-f][1,2,4]triazin-7-yl)-5-cyano-3,4-dihydroxytetrahydrofuran-2-yl)methyl ((R)-2-((4-cyano-3-fluorobenzyl)oxy)nonadec-4-yn-1-yl) hydrogen phosphate] registered a CC50 at 5 days in series [2] of 230 nM. The figures for the EC50 (in series [1] (setting [4]); in the series with SARS-CoV-2 (setting [5])) were 17 nM and 0.072 µM, respectively.
As for `CCCCCCCCCCCCCCCCCCOC[C@H](COP(=O)(O)OC[C@H]1O[C@@](C#N)(c2ccc3c(N)ncnn23)[C@H](O)[C@@H]1O)OCc1ccccc1` [Reference Compound, reference compound], in series [3], the “Total Lung Phosphate Level (monophosphate + diphosphate + triphosphate, nmol/g)” value amounted to 0.5 nmol/g.
